Where two headings read alike, the source gives them in different places.
Experiments:
[1] = tested on: DND41 (T-ALL leukaemia) cells; assay: Proliferation of DND41 cells, 4 days; format: cell-based; details: doses exceeding 10 μM of each drug, alone and in combination
Method: Inventors' model predictions were corroborated by cell line experiments where proliferation responses of T-ALL cells (DND41) to Type I inhibitor Ruxolitinib, Type II inhibitor CHZ868, and their combination were measured (FIG. 17). […] However, the inventors observed saturation of inhibition of cellular proliferation. […] This incomplete inhibition of proliferation is explained by activation of STAT family of transcription factors by alternative signalling pathways.

RAF = details: literature values; cited from earlier work
[2] = tested on: HER2-positive breast cancer cells; assay: HER2-positive breast cancer cells stimulated with Heregulin (HRG); format: cell-based
Method: Thus, in order to model conditions of resistance to ErbB inhibitors, all proliferation assays were performed in the presence of HRG.

[3] = tested on: ERK signaling, MEL-JUSO cells; assay: ERK signaling in growing MEL-JUSO cells, Western Blot, 1 hr; format: cell-based; details: trametinib at doses that do not fully inhibit ERK activation
Method: Cells were transferred on ice, scraped using lysis buffer (10 mM Tris pH 7.5, 150 mM NaCl, and 0.5% (v/v) NP-40) complemented with protease and phosphatase inhibitors, and the cellular debris removed from the lysate by centrifugation at 10,000×g at 4° C. for 10 min. […] Lysates were then resolved by SDS PAGE (12%) and transferred on a polyvinylidene difluoride membrane (Millipore). Protein visualization was performed in combination with horseradish peroxidase-conjugated secondary antibodies (Cell Signalling Technologies) and the enhanced chemiluminescence system (GE Healthcare) using the Advanced Molecular Vision Chemi Image Unit associated with ChemoStar Imager (INTAS Science Imaging Instruments GmbH) for the following antibodies: Polyclonal rabbit anti-human mitogen-activated protein (MAP) kinase [extra-cellular signal-regulated kinase (ERK) 1 and ERK2] antibody (Sigma), monoclonal mouse anti-human MAP kinase activated (diphosphorylated ERK1 and ERK2) antibody (Sigma).

[4] = tested on: MEK signaling, A375 (WT RAS, BRAF^V600E/V600E) cells; assay: cells; details: Homo sapiens, A-375, 1 h, read-out: IC50, MEK signaling response
Method: (§1) Cell lines were either purchased from ATCC (SKMEL2, A375) or DSMZ (MEL-JSUO). […] All cells were grown in RPMI (Gibco) supplemented with 2 mM L-glutamine and 10% (v/v) fetal bovine serum in a humidified atmosphere of 5% CO2 at 37° C. Cells were seeded in 12-well plates (Greiner CELLSTAR dishes) at the density of 10^5 cells per well. After reaching sufficient confluency, cells were treated with different concentrations of inhibitors and DMSO as control. To prepare the protein lysates, plates were transferred on ice, washed with ice-cold PBS and harvested by scraping in specific ELISA buffers as indicated below.
(§2) Briefly, following the addition of complete MSD lysis buffer and scraping the cells from the surface of the dish, the cellular debris was removed from the lysate by centrifugation at 10000×g at 4° C. for 10 min. Protein concentration was determined using the BCA test according to the manufacturer's instructions (Pierce™ BCA Protein Assay Kit).

[5] = tested on: ERK signaling, MEL-JUSO cells; assay: ERK signaling (ppERK) in growing MEL-JUSO cells, MESOSCALE system, 24 hr; format: cell-based; details: applied separately, high doses (12 μM), following paradoxical activation
Method: as §1, §2

[6] = tested on: ERK signaling, MEL-JUSO cells; assay: ERK signaling (ppERK) in growing MEL-JUSO cells, LUMINEX xMAP, 24 hr; format: cell-based; details: extending into the micromolar range
Method: Following the addition of complete Luminex lysis buffer and scraping the cells from the surface of the dish, the cellular debris was removed from the lysate by centrifugation at 10000×g at 4° C. for 10 min. The pellet was discarded and the protein concentration of lysates was adjusted to 0.3 μg/μL using the BCA assay kit. xMAP assays were performed on a Luminex-3D platform (Luminex, Austin, TX) using commercially available phosphoprotein antibody-coupled beads (ProtATonce, Athens, Greece). […] Additionally, for loading control the levels of glyceraldehyde 3-phosphate dehydrogenase (GAPDH) protein were analyzed in a separate setting.

MEL-JUSO cells = assay: Cell proliferation assay (MTS) in MEL-JUSO cells; format: cell-based; details: Homo sapiens, read-out: GI50 (a dose inhibiting cell proliferation by 50%)
Method: Cell proliferation was analyzed by CellTiter 96 Aqueous One Solution Cell Proliferation Assay (MTS; Promega) according to manufacturer's instructions. For this, 5,000 cells were plated per well of 96-well tissue culture plates (in 200 μL of medium).

all RAF isoforms = details: literature (King 2006; Wan 2004; Wilhelm 2004); cited from earlier work

Q: With CC(=O)Nc1cc(Oc2ccc3c(nc(Nc4ccc(F)cc4F)n3C)c2C)ccn1 [CHZ868] as the compound, how does the “plateau level of suppression of cellular proliferation” value [1] read?
A: ~60%

Q: Which 1/koff (RAF) does the source give for COC(=O)N[C@@H](C)CNc1nccc(-c2cn(C(C)C)nc2-c2cc(Cl)cc(NS(C)(=O)=O)c2F)n1 [LGX818] here?
A: ≥ 2 h

Q: Which “sensitivity of cells after stimulation with Heregulin (HRG)” value [2] does the source give for CS(=O)(=O)CCNCc1ccc(-c2ccc3ncnc(Nc4ccc(OCc5cccc(F)c5)c(Cl)c4)c3c2)o1 [Lapatinib] here?
A: resistant to Lapatinib treatment

Q: For N#CC[C@H](C1CCCC1)n1cc(-c2ncnc3[nH]ccc23)cn1 [Ruxolitinib], which “plateau level of suppression of cellular proliferation” value [1] is on record?
A: ~60%

Q: For CC(C)(C)c1nc(-c2cccc(NS(=O)(=O)c3c(F)cccc3F)c2F)c(-c2ccnc(N)n2)s1 [dabrafenib], which “effect on ERK signaling of addition to trametinib” value [3] is on record?
A: increases rather than decreases ERK signaling

Q: Which IC50 [4] does the source give for CNC(=O)c1cc(Oc2ccc(NC(=O)Nc3ccc(Cl)c(C(F)(F)F)c3)cc2)ccn1 [sorafenib] here?
A: 44 µM

Q: What about the ppERK response [5] of the same compound?
A: could only slightly inhibit ppERK

Q: And the “ERK response to each inhibitor applied separately” value [6]?
A: marked paradoxical ERK activation

Q: What about the GI50 (MEL-JUSO cells; MEL-JUSO) of the same compound?
A: 8 µM

Q: And the “inhibition of RAF isoforms in in vitro kinase assays” value (all RAF isoforms)?
A: low nM range

Q: For CCCS(=O)(=O)Nc1ccc(F)c(C(=O)c2c[nH]c3ncc(-c4ccc(Cl)cc4)cc23)c1F [vemurafenib], which GI50 (MEL-JUSO cells; MEL-JUSO cells, applied individually) is on record?
A: 32 µM
